Reference: patent US20250228835A1, “PYRIDINYLOXYPYRIDINES AND RELATED COMPOUNDS AND THEIR USE IN TREATING MEDICAL CONDITIONS” (Rectify Pharmaceuticals, Inc., priority 2024, published 2025)
pEC50: −log10 of the molar value.

Key:
Type in all cases: cell-based
ABCB4 WT = molecular target: T1, ABCB4 WT (Homo sapiens, UniProt P21439); assay: ABCB4 WT assay: HiBit protein expression; settings: HEK-293 cells stably expressing HiBit-tagged ABCB4 WT; 24 h treatment; top concentration 30 μM; read-out: ABCB4 WT EC50, Emax
T1 construct: expressed in transfected cells
How it was run: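 HEK-293 cells stably expressing HiBit-tagged human ABCB4 WT, treated 24 h at 37 °C with 11-dose 3-fold dilutions, top final 30 μM in 0.3% DMSO. HiBit lytic reagent luminescence read after 1 h at 25 °C; Emax and EC50 derived.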

ABCA4 P1380L = molecular target: T2, ABCA4 P1380L (Homo sapiens, UniProt P78363, P1380L); assay: A4 correction dose-response assay: ABCA4 P1380L HiBit protein expression; settings: HEK-293 cells stably expressing HiBit-tagged ABCA4 P1380L; 24 h treatment; top concentration 30 μM; read-out: ABCA4 P1380L EC50, Emax
T2 construct: expressed in transfected cells
How it was run: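 Cells transfected with HiBit-tagged human ABCA4 P1380L cDNA were treated for 24 h at 37°C with an eleven-point dilution series (top final 30 μM, 0.3% DMSO).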

ABCD2 WT = molecular target: T3, ABCD2 WT (Homo sapiens, UniProt Q9UBJ2); assay: D2 correction dose-response assay: ABCD2 WT HiBit protein expression; settings: HEK-293/ABCD2 WT cells, 24 hours treatment, HiBit luminescence; class combines EC50 and Mean MaxAct (fold); read-out: ABCD2 WT EC50, Emax
T3 construct: expressed in transfected cells
T3 sequence (Q9UBJ2 1-740): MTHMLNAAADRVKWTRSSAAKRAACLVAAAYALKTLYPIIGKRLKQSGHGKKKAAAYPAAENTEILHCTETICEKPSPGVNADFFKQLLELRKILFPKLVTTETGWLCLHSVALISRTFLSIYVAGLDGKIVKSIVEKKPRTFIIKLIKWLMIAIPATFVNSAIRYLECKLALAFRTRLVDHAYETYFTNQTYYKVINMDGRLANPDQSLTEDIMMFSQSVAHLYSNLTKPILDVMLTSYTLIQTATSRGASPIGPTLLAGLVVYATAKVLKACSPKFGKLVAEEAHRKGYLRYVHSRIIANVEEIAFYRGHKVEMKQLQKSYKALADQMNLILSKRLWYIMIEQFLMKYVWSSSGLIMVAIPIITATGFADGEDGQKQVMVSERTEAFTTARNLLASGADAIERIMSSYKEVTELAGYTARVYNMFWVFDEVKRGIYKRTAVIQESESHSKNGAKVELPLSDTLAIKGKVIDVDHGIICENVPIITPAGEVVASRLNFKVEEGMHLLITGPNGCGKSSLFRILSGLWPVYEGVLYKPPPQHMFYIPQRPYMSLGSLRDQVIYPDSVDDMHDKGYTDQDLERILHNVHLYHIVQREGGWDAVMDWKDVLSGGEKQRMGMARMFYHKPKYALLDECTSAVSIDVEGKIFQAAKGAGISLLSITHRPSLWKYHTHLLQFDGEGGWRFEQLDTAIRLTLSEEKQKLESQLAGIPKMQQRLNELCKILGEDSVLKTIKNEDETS
How it was run: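 HEK-293 cells stably expressing HiBit-tagged human ABCD2 WT were treated with 11 doses (3-fold dilutions, top final 30 μM, 0.3% DMSO) for 24 h at 37 °C. Expression was measured by HiBit lytic luminescence after 1 h at 25 °C, giving EC50 and Emax.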

T2 sequence (P78363 whole entry P1380L): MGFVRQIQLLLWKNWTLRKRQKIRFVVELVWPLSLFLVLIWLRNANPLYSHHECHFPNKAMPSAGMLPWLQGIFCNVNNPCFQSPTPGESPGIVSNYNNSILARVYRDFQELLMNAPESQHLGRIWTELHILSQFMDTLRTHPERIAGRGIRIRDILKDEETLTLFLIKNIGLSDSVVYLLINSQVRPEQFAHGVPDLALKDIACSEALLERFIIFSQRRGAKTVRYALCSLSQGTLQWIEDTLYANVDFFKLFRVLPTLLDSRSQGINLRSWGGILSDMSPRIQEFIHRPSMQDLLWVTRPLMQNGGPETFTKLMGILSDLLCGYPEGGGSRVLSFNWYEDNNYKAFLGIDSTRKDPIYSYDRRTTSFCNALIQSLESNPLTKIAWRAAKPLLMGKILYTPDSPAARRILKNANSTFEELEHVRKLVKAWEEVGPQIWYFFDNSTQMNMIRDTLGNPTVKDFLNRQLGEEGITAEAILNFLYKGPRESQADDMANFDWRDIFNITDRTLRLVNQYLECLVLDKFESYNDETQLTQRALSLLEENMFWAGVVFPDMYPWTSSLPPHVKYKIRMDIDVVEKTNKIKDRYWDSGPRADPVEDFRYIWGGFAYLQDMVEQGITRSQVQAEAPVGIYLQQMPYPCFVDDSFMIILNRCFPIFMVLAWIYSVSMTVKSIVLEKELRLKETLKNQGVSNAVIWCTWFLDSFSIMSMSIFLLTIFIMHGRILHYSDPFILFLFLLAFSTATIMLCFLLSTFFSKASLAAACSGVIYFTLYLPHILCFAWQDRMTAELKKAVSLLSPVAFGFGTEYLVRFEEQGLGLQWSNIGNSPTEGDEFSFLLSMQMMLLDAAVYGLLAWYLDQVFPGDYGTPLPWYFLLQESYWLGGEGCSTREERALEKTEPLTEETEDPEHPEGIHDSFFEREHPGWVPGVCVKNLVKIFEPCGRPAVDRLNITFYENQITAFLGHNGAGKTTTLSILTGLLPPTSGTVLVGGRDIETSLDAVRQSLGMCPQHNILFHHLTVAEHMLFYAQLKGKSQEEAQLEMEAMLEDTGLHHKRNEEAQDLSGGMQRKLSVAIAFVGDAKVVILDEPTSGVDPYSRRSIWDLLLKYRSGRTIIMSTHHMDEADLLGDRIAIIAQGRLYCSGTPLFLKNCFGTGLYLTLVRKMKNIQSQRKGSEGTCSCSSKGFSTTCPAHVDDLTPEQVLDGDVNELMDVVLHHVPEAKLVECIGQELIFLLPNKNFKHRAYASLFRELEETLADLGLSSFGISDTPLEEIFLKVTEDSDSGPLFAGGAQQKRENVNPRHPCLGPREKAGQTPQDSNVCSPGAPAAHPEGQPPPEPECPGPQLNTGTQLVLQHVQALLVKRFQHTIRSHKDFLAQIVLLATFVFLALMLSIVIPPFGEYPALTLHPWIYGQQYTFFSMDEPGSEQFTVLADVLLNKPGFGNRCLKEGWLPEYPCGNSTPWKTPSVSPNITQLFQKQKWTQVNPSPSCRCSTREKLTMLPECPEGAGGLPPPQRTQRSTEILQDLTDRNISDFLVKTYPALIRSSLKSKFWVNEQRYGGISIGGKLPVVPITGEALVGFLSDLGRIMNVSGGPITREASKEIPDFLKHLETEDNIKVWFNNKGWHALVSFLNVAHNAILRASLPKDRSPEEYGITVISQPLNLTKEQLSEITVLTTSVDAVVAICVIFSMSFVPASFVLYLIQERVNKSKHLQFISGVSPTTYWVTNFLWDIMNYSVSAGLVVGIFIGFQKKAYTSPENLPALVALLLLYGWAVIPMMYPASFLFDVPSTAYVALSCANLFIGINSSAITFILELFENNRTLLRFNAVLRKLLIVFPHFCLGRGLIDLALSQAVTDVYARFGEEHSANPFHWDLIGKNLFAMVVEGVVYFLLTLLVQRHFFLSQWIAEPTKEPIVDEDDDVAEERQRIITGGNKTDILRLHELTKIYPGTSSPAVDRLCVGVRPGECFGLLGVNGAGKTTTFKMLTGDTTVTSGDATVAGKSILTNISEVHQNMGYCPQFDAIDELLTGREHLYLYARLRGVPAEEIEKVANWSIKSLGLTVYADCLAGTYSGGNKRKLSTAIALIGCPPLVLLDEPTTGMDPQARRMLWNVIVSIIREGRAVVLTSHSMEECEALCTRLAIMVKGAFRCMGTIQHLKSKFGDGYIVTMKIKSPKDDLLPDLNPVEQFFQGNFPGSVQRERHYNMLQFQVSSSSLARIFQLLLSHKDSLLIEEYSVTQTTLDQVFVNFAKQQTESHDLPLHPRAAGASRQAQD
T1 sequence (P21439 whole entry): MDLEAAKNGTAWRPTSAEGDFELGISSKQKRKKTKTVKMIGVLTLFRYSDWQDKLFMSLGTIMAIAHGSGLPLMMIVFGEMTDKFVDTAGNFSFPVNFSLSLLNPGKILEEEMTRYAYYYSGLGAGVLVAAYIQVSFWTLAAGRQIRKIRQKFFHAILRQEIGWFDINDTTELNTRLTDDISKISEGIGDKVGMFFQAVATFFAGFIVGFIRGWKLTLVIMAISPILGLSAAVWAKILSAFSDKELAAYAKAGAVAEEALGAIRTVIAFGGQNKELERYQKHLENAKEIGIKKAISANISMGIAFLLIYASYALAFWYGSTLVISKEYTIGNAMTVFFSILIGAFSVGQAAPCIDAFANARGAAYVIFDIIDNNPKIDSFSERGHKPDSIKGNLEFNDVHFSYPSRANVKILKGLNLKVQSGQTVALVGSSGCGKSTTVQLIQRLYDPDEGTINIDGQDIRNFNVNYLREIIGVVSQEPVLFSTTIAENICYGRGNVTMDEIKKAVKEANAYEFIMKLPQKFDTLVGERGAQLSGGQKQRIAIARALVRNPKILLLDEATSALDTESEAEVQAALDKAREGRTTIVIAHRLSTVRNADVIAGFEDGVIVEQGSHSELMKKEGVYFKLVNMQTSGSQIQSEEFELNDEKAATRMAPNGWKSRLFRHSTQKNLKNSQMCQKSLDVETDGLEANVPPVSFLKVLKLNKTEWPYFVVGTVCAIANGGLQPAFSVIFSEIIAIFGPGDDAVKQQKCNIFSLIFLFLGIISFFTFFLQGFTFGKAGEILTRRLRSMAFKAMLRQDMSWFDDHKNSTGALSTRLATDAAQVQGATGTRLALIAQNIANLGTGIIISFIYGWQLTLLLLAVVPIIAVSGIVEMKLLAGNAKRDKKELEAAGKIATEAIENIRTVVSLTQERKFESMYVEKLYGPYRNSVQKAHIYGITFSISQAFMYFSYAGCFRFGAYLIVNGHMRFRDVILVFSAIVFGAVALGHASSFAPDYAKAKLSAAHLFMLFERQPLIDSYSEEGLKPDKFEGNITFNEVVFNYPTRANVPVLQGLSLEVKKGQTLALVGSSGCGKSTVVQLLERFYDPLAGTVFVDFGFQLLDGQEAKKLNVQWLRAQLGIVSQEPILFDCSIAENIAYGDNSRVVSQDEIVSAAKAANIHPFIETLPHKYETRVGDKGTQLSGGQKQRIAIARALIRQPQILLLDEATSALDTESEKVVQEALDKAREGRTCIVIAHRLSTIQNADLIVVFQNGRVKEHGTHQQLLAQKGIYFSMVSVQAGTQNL

Row | Structure (SMILES) | pEC50 (ABCB4 WT) | pEC50 (ABCA4 P1380L) | pEC50 (ABCD2 WT)
1 | Cc1cc(C)c(Oc2nc(-c3cncc(N4CCC4)c3)ccc2NS(C)(=O)=O)c(C)n1 [Compound I-190] | > 6.00 | > 6.00 | > 6.00
2 | Cc1nc(C)c(Oc2nc(-c3cncc(C(F)F)c3)ccc2NS(C)(=O)=O)c(C)n1 [Compound I-191] | > 6.00 | > 6.00 | 4.60 to 5.00
3 | Cc1nc(C)c(Oc2nc(-c3cncc(C(F)(F)F)c3)ccc2NS(C)(=O)=O)c(C)n1 [Compound I-192] | > 4.60 | 5.00 to 6.00 | < 4.60
4 | Cc1nc(C)c(Oc2nc(-c3cncc(C4CC4)c3)ccc2NS(C)(=O)=O)c(C)n1 [Compound I-193] | > 6.00 | > 6.00 | > 6.00
5 | Cc1cc(C)c(Oc2nc(-c3cncc(C4CN(C)C4)c3)ccc2NS(C)(=O)=O)c(C)n1 [Compound I-194] | ≤ 4.60 | 4.60 to 5.00 | < 4.60
6 | Cc1cc(C)c(Oc2nc(-c3cncc(N4CC(F)(F)C4)c3)ccc2NS(C)(=O)=O)c(C)n1 [Compound I-195] | > 6.00 | < 4.60 | < 4.60
7 | COC1CN(c2cncc(-c3ccc(NS(C)(=O)=O)c(Oc4c(C)cc(C)nc4C)n3)c2)C1 [Compound I-196] | ≤ 4.60 | < 4.60 | > 6.00
8 | Cc1cc(C(F)F)nc(C)c1Oc1nc(-c2cncc(C3COC3)c2)ccc1NS(C)(=O)=O [Compound I-197] | > 6.00 | 5.00 to 6.00 | 5.00 to 6.00
9 | Cc1cc(C(F)(F)F)nc(C)c1Oc1nc(-c2cncc(C3COC3)c2)ccc1NS(C)(=O)=O [Compound I-198] | > 6.00 | < 4.60 | < 4.60
10 | Cc1cc(C(F)F)nc(C)c1Oc1nc(-c2cncc(C#N)c2)ccc1NS(=O)(=O)C1CC1 [Compound I-199] | > 6.00 | > 6.00 | 5.00 to 6.00
11 | Cc1nc(C(F)(F)F)nc(C)c1Oc1nc(-c2cncc(C#N)c2)ccc1NS(C)(=O)=O [Compound I-200] | > 6.00 | > 6.00 | > 6.00
12 | Cc1cc(C)c(Oc2nc(-c3cncc(N4CCOCC4)c3)ccc2NS(C)(=O)=O)c(C)n1 [Compound I-201] | ≤ 4.60 | 5.00 to 6.00 | 5.00 to 6.00
13 | Cc1cc(C(F)F)nc(C)c1Oc1nc(-c2cncc(Cl)c2)ccc1NS(C)(=O)=O [Compound I-202] | > 4.60 | > 6.00 | < 4.60
14 | Cc1cc(C(F)F)nc(C)c1Oc1nc(-c2ccnc(C#N)c2)ccc1NS(=O)(=O)C1CC1 [Compound I-203] | > 4.60 | > 6.00 | > 6.00
15 | Cc1cc(C(F)F)nc(C)c1Oc1nc(-c2ccnc(C#N)c2)ccc1NS(C)(=O)=O [Compound I-204] | > 6.00 | > 6.00 | > 6.00
16 | Cc1nc(C(F)(F)F)nc(C)c1Oc1nc(-c2cncc(Cl)c2)ccc1NS(C)(=O)=O [Compound I-205] | ≤ 4.60 | > 6.00 | > 6.00
17 | COC(=O)c1cncc(-c2ccc(NS(C)(=O)=O)c(Oc3cc(C)n(C)n3)n2)c1 [Compound I-206] | > 4.60 | > 4.60 | < 4.60
18 | Cc1cc(C2CCC2)nc(C)c1Oc1nc(-c2cncc(C#N)c2)ccc1NS(C)(=O)=O [Compound I-208] | > 6.00 | > 6.00 | < 4.60
19 | COc1nc(C)cc(C)c1Oc1nc(-c2cncc(C#N)c2)ccc1NS(C)(=O)=O [Compound I-209] | > 6.00 | > 6.00 | > 6.00
20 | Cc1cc(C)c(Oc2nc(-c3ccnc(C#N)c3)ccc2NS(=O)(=O)C2CC2)c(C)n1 [Compound I-211] | > 6.00 | 4.60 to 5.00 | > 6.00
21 | C#Cc1cncc(-c2ccc(NS(C)(=O)=O)c(Oc3c(C)cc(C)nc3C)n2)c1 [Compound I-212] | > 6.00 | > 6.00 | > 6.00

Row | Structure (SMILES) | pEC50 (ABCB4 WT) | pEC50 (ABCA4 P1380L) | pEC50 (ABCD2 WT)
22 | Cc1cc(C2CC2)nc(C)c1Oc1nc(-c2ccnc(C#N)c2)ccc1NS(C)(=O)=O [Compound I-213] | > 6.00 | > 6.00 | < 4.60
23 | Cc1cc(C)c(Oc2nc(-c3cncc(C4COC4)c3)ccc2NS(C)(=O)=O)c(C)n1 [Compound I-216] | > 6.00 | < 4.60 | > 6.00
24 | CCS(=O)(=O)Nc1ccc(-c2cncc(C#N)c2)nc1Oc1c(C)cc(C(F)(F)F)nc1C [Compound I-217] | > 6.00 | > 6.00 | > 6.00
25 | Cc1cc(C(F)(F)F)nc(C)c1Oc1nc(-c2cncc(C#N)c2)ccc1NS(=O)(=O)C1CC1 [Compound I-218] | > 6.00 | > 6.00 | 4.60 to 5.00
26 | Cc1cc(C(F)(F)F)nc(C)c1Oc1nc(-c2ccnc(C#N)c2)ccc1NS(C)(=O)=O [Compound I-219] | > 6.00 | > 6.00 | > 6.00
27 | Cc1cc(C)c(Oc2nc(-c3cncc(C(C)(C)O)c3)ccc2NS(C)(=O)=O)c(C)n1 [Compound I-220] | ≤ 4.60 | < 4.60 | < 4.60
28 | Cc1cc(C)c(Oc2nc(-c3cncc(C#N)c3)ccc2N2CCCS2(=O)=O)c(C)n1 [Compound I-221] | ≤ 4.60 | 5.00 to 6.00 | < 4.60
29 | COc1cc(C)c(Oc2nc(-c3cncc(C#N)c3)ccc2NS(C)(=O)=O)c(C)n1 [Compound I-222] | > 6.00 | > 6.00 | > 6.00
30 | Cc1nc(C)c(C(F)(F)F)cc1Oc1nc(-c2cncc(C#N)c2)ccc1NS(C)(=O)=O [Compound I-225] | > 4.60 | < 4.60 | > 6.00
31 | Cc1cc(Oc2nc(-c3cncc(C#N)c3)ccc2NS(C)(=O)=O)c(C)nc1C [Compound I-226] | > 6.00 | < 4.60 | > 6.00
32 | Cc1cc(C)c(Oc2nc(-c3cncc(CO)c3)ccc2NS(C)(=O)=O)c(C)n1 [Compound I-227] | > 4.60 | 5.00 to 6.00 | 5.00 to 6.00
33 | Cc1cc(C)c(Oc2nc(-c3cncc(C#N)c3)ccc2NS(=O)(=O)C2COC2)c(C)n1 [Compound I-228] | > 4.60 | > 6.00 | 5.00 to 6.00
34 | Cc1nc(C)c(C2CC2)cc1Oc1nc(-c2cncc(C#N)c2)ccc1NS(C)(=O)=O [Compound I-229] | > 4.60 | 5.00 to 6.00 | 5.00 to 6.00
35 | Cc1cc(C(F)F)nc(C)c1Oc1nc(-c2cncc(C#N)c2)ccc1NS(C)(=O)=O [Compound I-230] | > 6.00 | > 6.00 | > 6.00
36 | COCc1cncc(-c2ccc(NS(C)(=O)=O)c(Oc3c(C)cc(C)nc3C)n2)c1 [Compound I-231] | 5.00 to 6.00 | 5.00 to 6.00 | > 6.00
37 | Cc1cc(C)c(Oc2nc(-c3cncc(C4CC4)c3)ccc2NS(C)(=O)=O)c(C)n1 [Compound I-232] | > 4.60 | > 4.60 | > 6.00
38 | Cc1nc(C)c(Oc2nc(-c3cncc(C#N)c3)ccc2NS(C)(=O)=O)c(C)n1 [Compound I-234] | 5.00 to 6.00 | > 6.00 | > 6.00
39 | Cc1cc(C2CC2)nc(C)c1Oc1nc(-c2cncc(C#N)c2)ccc1NS(=O)(=O)C1COC1 [Compound I-235] | > 4.60 | > 4.60 | > 6.00
40 | Cc1cc(C2CC2)nc(C)c1Oc1nc(-c2cncc(Cl)c2)ccc1NS(=O)(=O)C1COC1 [Compound I-236] | > 4.60 | > 4.60 | > 6.00
41 | Cc1cc(C)c(Oc2nc(-c3cncc(Cl)c3)ccc2NS(=O)(=O)C2COC2)c(C)n1 [Compound I-237] | > 4.60 | > 6.00 | > 6.00
